Where “and” joins values, the source holds several entries; their conditions need not be identical. Identical values can stand only once. Toxic doses and inconclusive results are not listed. How the source made its calls: active means survival T/C of 150% or more; inactive means T/C below 125% in these data.
Tested on: C57BL/6 mice, intracerebral ependymoblastoma, median survival T/C
Assay: NCI In Vivo Anticancer Drug Screen. Data for tumor model Ependymoblastoma (intracerebral) in C57BL/6 mice
Settings: endpoint: median survival time, higher = longer survival
Method: The antitumor activity of compounds was measured in mice bearing transplantable tumors. Survival or tumor size were measured and the results are expressed as the measurement made in the treated group (T) divided by the measurement made in the vehicle treated control group (C). The tumor model used in this assay is Ependymoblastoma (intracerebral) in C57BL/6 mice

[1] = dose: 0.05 mg/kg/injection, schedule: Q01DX005 (ip), vehicle: Klucel (hydroxypropylcellulose) (HPC)
[2] = dose: 0.1 mg/kg/injection, schedule: Q01DX005 (ip), vehicle: Klucel (hydroxypropylcellulose) (HPC)
[3] = dose: 0.2 mg/kg/injection, schedule: Q01DX005 (ip), vehicle: Klucel (hydroxypropylcellulose) (HPC)
[4] = dose: 0.4 mg/kg/injection, schedule: Q01DX005 (ip), vehicle: Klucel (hydroxypropylcellulose) (HPC)
[5] = dose: 0.8 mg/kg/injection, schedule: Q01DX005 (ip), vehicle: Klucel (hydroxypropylcellulose) (HPC)
[6] = dose: 80.0 mg/kg/injection, schedule: Q01DX001 (ip), vehicle: Klucel (hydroxypropylcellulose) (HPC)

Measured: T/C

NC(=S)N/N=C/c1ccc(O)cn1
inactive: dose: 12.0 mg/kg/injection, schedule: Q01DX005 (ip), vehicle: saline 108 % of control | dose: 24.0 mg/kg/injection, schedule: Q01DX005 (ip), vehicle: saline 94 % of control | dose: 48.0 mg/kg/injection, schedule: Q01DX005 (ip), vehicle: saline 101 % of control | dose: 96.0 mg/kg/injection, schedule: Q01DX005 (ip), vehicle: saline 104 % of control

O=CC(NC(=O)N(CCCl)N=O)C(O)C(O)C(O)CO (stereo unspecified)
inactive: dose: 0.12 mg/kg/injection, schedule: Q01DX005 (ip), vehicle: Klucel (hydroxypropylcellulose) (HPC) 95 % of control | dose: 0.12 mg/kg/injection, schedule: Q01DX005 (ip), vehicle: saline 96 % of control and 104 % of control | dose: 0.13 mg/kg/injection, schedule: Q01DX005 (ip), vehicle: Klucel (hydroxypropylcellulose) (HPC) 88 % of control | dose: 0.13 mg/kg/injection, schedule: Q01DX005 (ip), vehicle: saline 89 % of control and 105 % of control | dose: 0.25 mg/kg/injection, schedule: Q01DX005 (ip), vehicle: Klucel (hydroxypropylcellulose) (HPC) 96 % of control and 123 % of control | dose: 0.5 mg/kg/injection, schedule: Q01DX005 (ip), vehicle: Klucel (hydroxypropylcellulose) (HPC) 97 % of control and 99 % of control | dose: 1.0 mg/kg/injection, schedule: Q01DX001 (ip), vehicle: Klucel (hydroxypropylcellulose) (HPC) 96 % of control | dose: 2.0 mg/kg/injection, schedule: Q01DX001 (ip), vehicle: Klucel (hydroxypropylcellulose) (HPC) 100 % of control | dose: 4.0 mg/kg/injection, schedule: Q01DX001 (ip), vehicle: Klucel (hydroxypropylcellulose) (HPC) 97 % of control | dose: 8.0 mg/kg/injection, schedule: Q01DX001 (ip), vehicle: Klucel (hydroxypropylcellulose) (HPC) 96 % of control | dose: 16.0 mg/kg/injection, schedule: Q01DX001 (ip), vehicle: Klucel (hydroxypropylcellulose) (HPC) 114 % of control | dose: 32.0 mg/kg/injection, schedule: Q01DX005 (oral), vehicle: saline 108 % of control | dose: 64.0 mg/kg/injection, schedule: Q01DX001 (oral), vehicle: saline 89 % of control | dose: 64.0 mg/kg/injection, schedule: Q01DX005 (oral), vehicle: saline 89 % of control | dose: 128.0 mg/kg/injection, schedule: Q01DX001 (oral), vehicle: saline 98 % of control | dose: 256.0 mg/kg/injection, schedule: Q01DX001 (oral), vehicle: saline 99 % of control | dose: 512.0 mg/kg/injection, schedule: Q01DX001 (oral), vehicle: saline 95 % of control | dose: 1024.0 mg/kg/injection, schedule: Q01DX001 (oral), vehicle: saline 99 % of control

Nc1ccnc(=O)[nH]1
inactive: dose: 64.0 mg/kg/injection, schedule: Q01DX005 (ip), vehicle: saline with Tween-80 95 % of control | dose: 128.0 mg/kg/injection, schedule: Q01DX005 (ip), vehicle: saline with Tween-80 90 % of control | dose: 256.0 mg/kg/injection, schedule: Q01DX005 (ip), vehicle: saline with Tween-80 104 % of control | dose: 512.0 mg/kg/injection, schedule: Q01DX005 (ip), vehicle: saline with Tween-80 87 % of control | dose: 1024.0 mg/kg/injection, schedule: Q01DX005 (ip), vehicle: saline with Tween-80 107 % of control

CCCCCCCCCCCCCC(=O)OC12CC(C)C3(O)C(C=C(CO)C(O)C4(O)C(=O)C(C)=CC43)C1C2(C)C (stereo unspecified)
inactive: dose: 0.13 mg/kg/injection, schedule: Q01DX005 (ip), vehicle: acetone 100 % of control | dose: 0.25 mg/kg/injection, schedule: Q01DX005 (ip), vehicle: acetone 97 % of control | dose: 0.5 mg/kg/injection, schedule: Q01DX005 (ip), vehicle: acetone 86 % of control

Clc1ccc(C(c2ccc(Cl)cc2)C(Cl)(Cl)Cl)cc1
inactive: dose: 8.0 mg/kg/injection, schedule: Q01DX005 (ip), vehicle: Klucel (hydroxypropylcellulose) (HPC) 92 % of control | dose: 16.0 mg/kg/injection, schedule: Q01DX005 (ip), vehicle: Klucel (hydroxypropylcellulose) (HPC) 101 % of control | dose: 32.0 mg/kg/injection, schedule: Q01DX005 (ip), vehicle: Klucel (hydroxypropylcellulose) (HPC) 96 % of control

Cc1ncc([N+](=O)[O-])n1CCO
inactive: dose: 64.0 mg/kg/injection, schedule: Q01DX005 (ip), vehicle: Klucel (hydroxypropylcellulose) (HPC) 103 % of control | dose: 128.0 mg/kg/injection, schedule: Q01DX005 (ip), vehicle: Klucel (hydroxypropylcellulose) (HPC) 99 % of control | dose: 256.0 mg/kg/injection, schedule: Q01DX005 (ip), vehicle: Klucel (hydroxypropylcellulose) (HPC) 107 % of control | dose: 512.0 mg/kg/injection, schedule: Q01DX005 (ip), vehicle: Klucel (hydroxypropylcellulose) (HPC) 111 % of control | dose: 1024.0 mg/kg/injection, schedule: Q01DX005 (ip), vehicle: Klucel (hydroxypropylcellulose) (HPC) 94 % of control

[N-]=[N+]=CC(=O)CCC(N)C(=O)O (stereo unspecified)
inactive: dose: 0.05 mg/kg/injection, schedule: Q01DX005 (ip), vehicle: saline 101 % of control | dose: 0.1 mg/kg/injection, schedule: Q01DX005 (ip), vehicle: saline 115 % of control | dose: 0.2 mg/kg/injection, schedule: Q01DX005 (ip), vehicle: saline 106 % of control | dose: 0.8 mg/kg/injection, schedule: Q01DX005 (ip), vehicle: saline 121 % of control

O=c1cnn(C2OC(CO)C(O)C2O)c(=O)[nH]1 (stereo unspecified)
inactive: dose: 250.0 mg/kg/injection, schedule: Q01DX005 (ip), vehicle: saline 102 % of control | dose: 500.0 mg/kg/injection, schedule: Q01DX005 (ip), vehicle: saline 109 % of control and 111 % of control | dose: 1000.0 mg/kg/injection, schedule: Q01DX005 (ip), vehicle: saline 105 % of control and 109 % of control | dose: 2000.0 mg/kg/injection, schedule: Q01DX005 (ip), vehicle: saline 115 % of control

COc1ccc(C[C@H](N)C(=O)NC2C(CO)OC(n3cnc4c(N(C)C)ncnc43)C2O)cc1 (stereo partly specified)
inactive: dose: 20.0 mg/kg/injection, schedule: Q01DX005 (ip), vehicle: saline 104 % of control | dose: 40.0 mg/kg/injection, schedule: Q01DX005 (ip), vehicle: saline 101 % of control

CCC1CC2CN(CCc3c([nH]c4ccccc34)C(C(=O)OC)(c3cc4c(cc3OC)N(C)C3C(O)(C(=O)OC)C(OC(C)=O)C5(CC)C=CCN6CCC43C65)C2)C1 (stereo unspecified)
inactive: [1] 102 % of control | [2] 108 % of control | [3] 108 % of control | [4] 108 % of control | [5] 108 % of control | dose: 1.6 mg/kg/injection, schedule: Q01DX005 (ip), vehicle: Klucel (hydroxypropylcellulose) (HPC) 102 % of control

CN(N=O)C(N)=O
inactive: dose: 2.5 mg/kg/injection, schedule: Q01DX001 (ip), vehicle: Klucel (hydroxypropylcellulose) (HPC) 120 % of control | dose: 5.0 mg/kg/injection, schedule: Q01DX001 (ip), vehicle: Klucel (hydroxypropylcellulose) (HPC) 124 % of control | [6] 97 % of control

S=c1nc[nH]c2nc[nH]c12
inactive: dose: 10.0 mg/kg/injection, schedule: Q01DX001 (ip), vehicle: Klucel (hydroxypropylcellulose) (HPC) 103 % of control | dose: 10.0 mg/kg/injection, schedule: Q01DX005 (ip), vehicle: Klucel (hydroxypropylcellulose) (HPC) 89 % of control and 103 % of control | dose: 20.0 mg/kg/injection, schedule: Q01DX001 (ip), vehicle: Klucel (hydroxypropylcellulose) (HPC) 91 % of control | dose: 20.0 mg/kg/injection, schedule: Q01DX005 (ip), vehicle: Klucel (hydroxypropylcellulose) (HPC) 107 % of control and 122 % of control | dose: 40.0 mg/kg/injection, schedule: Q01DX001 (ip), vehicle: Klucel (hydroxypropylcellulose) (HPC) 109 % of control | [6] 113 % of control | dose: 160.0 mg/kg/injection, schedule: Q01DX001 (ip), vehicle: Klucel (hydroxypropylcellulose) (HPC) 102 % of control

CCC1=C[C@H]2CN(CCc3c([nH]c4ccccc34)[C@@](C(=O)OC)(c3cc4c(cc3OC)N(C)[C@H]3[C@@](O)(C(=O)NC)[C@H](OC(C)=O)[C@]5(CC)C=CCN6CC[C@]43[C@@H]65)C2)C1
inactive: [1] 105 % of control | [2] 98 % of control | [3] 107 % of control | [4] 103 % of control | [5] 93 % of control

Nc1nc(=S)c2ncn(C3OC(COC(=O)c4ccc(Cl)cc4)C(OC(=O)c4ccc(Cl)cc4)C3OC(=O)c3ccc(Cl)cc3)c2[nH]1 (stereo unspecified)
inactive: dose: 18.75 mg/kg/injection, schedule: Q01DX005 (ip), vehicle: Klucel (hydroxypropylcellulose) (HPC) 96 % of control | dose: 37.5 mg/kg/injection, schedule: Q01DX005 (ip), vehicle: Klucel (hydroxypropylcellulose) (HPC) 87 % of control

Source: PubChem BioAssay AID222 (DTP/NCI, 2004)
